Where “and” joins values, the source holds several entries; their conditions need not be identical. Identical values can stand only once. Entries after “also recorded” stand apart in the source; their conditions may differ.
Experiments:
[1] = tested on: humanized PXR-CAR-CYP3A4/3A7 mice, liver; assay: Liver cholesterol, C4 and lathosterol analysis (HFD study); assay type: in vivo, mouse; set-up: liver total cholesterol (TotCh), individual animals / liver free cholesterol (Free CH), individual animals / liver cholesteryl esters (CE), individual animals / liver C4, individual animals / liver lathosterol, individual animals: unit not given here
Procedure: Cholesterol (Ch, total and free Ch), C4, and lathosterol determination were performed in liver tissue (25–80 mg fresh weight) using GC-MS according to Cohen et al.[67] (detailed protocol in Supplementary, Chapter 14). Internal standard (d7-cholesterol, Sigma Aldrich/Merck) was used. Solid phase extraction[68] and analysis were performed using LC-MS/MS as described previously. Protein quantification was done using DC Protein Assay (Bio-Rad) according to manufacturer instructions (micro assay format). All samples were analyzed for protein content in triplicates and analyzed.
Liver tissue (25-80 mg fresh weight) was diluted 10x with PBS (by weight), cut into small pieces using scissors, and treated with multiple (10-20) short pulses of ultrasound until a smooth homogenate was obtained. This 10% liver sonicate was used in subsequent analyses.
Lathosterol was measured using the same procedure as for free cholesterol with slight modifications: the volume of liver homogenate as well as the injection volume were increased (100 µL and 2 µL, respectively) while the amount of internal standard was reduced to approximately 100 ng. Also, the mixture was sonicated for 10 minutes after adding ethanol.
Liver sonicate (10%) was further diluted 30x (by weight) and 5 µL was analyzed using DC Protein Assay (Bio-Rad) according to manufacturer instructions (microassay format). Bovine serum albumin was used as standard. All samples were analyzed in triplicates.

[2] = target: T1, human CAR ligand-binding domain (LBD) (Homo sapiens, UniProt Q14994); assay: TR-FRET CAR coactivator assay (LanthaScreen); assay type: biochemical
T1 construct: purchased ThermoFisher Scientific PV4836

[3] = target: T2, PXR LBD (Homo sapiens, UniProt O75469); assay: TR-FRET PXR LBD competitive binding assay (LanthaScreen); conditions: recombinant PXR LBD
T2 construct: purchased ThermoFisher Scientific
Procedure: The LanthaScreen TR-FRET PXR Competitive Binding Assay (ThermoFisher Scientific, USA) was performed to evaluate interaction with PXR LBD as we described. The assay measures the ability of an evaluated compound to replace the fluorescent PXR ligand from the receptor. The fluorescence was measured using a Synergy 2 Multi-Mode Microplate Reader (BioTek Winooski, VT, USA) (n = 3).

[4] = tested on: Salmonella typhimurium TA 98, TA 100, TA 1535, TA 1537; Escherichia coli WP2 uvrA; assay: Reverse-mutation Ames test / Bacterial Reverse Mutation Test; conditions: with and without metabolic activation
Excerpt: The mutagenic activity of MI-883 was detected using the commercially available Muta-ChromoPlate bacterial strain kit (ebpi, Mississauga, Ontario, Canada), which is a 96-well microplate version of the reverse-mutation Salmonella typhimurium Ames test with S9 rat-liver extract. Salmonella typhimurium tester strains TA 98 (detection of frameshift mutagens) and TA 100 (detection of base-exchange mutations) were used as we described before^1.
Consistently, Bacterial Reverse Mutation Test was performed as a service at Research Institute for Organic Syntheses Inc., (Pardubice, Czech Republic) in Salmonella typhimurium strains TA 98, TA 100, TA 1535, TA 1537, and one indicator Escherichia coli WP2 uvrA strains. The report is available after request.

[5] = tested on: LS174T cells (endogenous PXR); assay: CYP3A4 mRNA RT-qPCR in LS174T cells
Excerpt: LS174T human colon adenocarcinoma cells (RRID:CVCL_1384) were used in induction experiments with the subsequent CYP3A4 mRNA RT-qPCR analysis as they express functional endogenous PXR.

[6] = Mouse plasma protein binding; assay type: in vitro ADME
Excerpt: Plasma protein binding, and stability in human and mouse plasma have been tested as previously described.

[7] = male mice, MI-883 5 mg/kg 3× per week p.o., unit not given, 5 mg/kg

T1 sequence (Q14994 109-348 isoform Q14994-2 limits assumed, other chains not shown): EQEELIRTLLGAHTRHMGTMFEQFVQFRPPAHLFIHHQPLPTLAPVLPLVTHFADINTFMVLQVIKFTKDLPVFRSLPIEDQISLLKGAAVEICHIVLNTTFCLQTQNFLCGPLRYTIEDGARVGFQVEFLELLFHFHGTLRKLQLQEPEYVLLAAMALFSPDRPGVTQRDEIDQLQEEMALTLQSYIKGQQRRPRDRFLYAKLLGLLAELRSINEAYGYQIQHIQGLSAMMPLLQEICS
T2 sequence (O75469 146-433 limits assumed): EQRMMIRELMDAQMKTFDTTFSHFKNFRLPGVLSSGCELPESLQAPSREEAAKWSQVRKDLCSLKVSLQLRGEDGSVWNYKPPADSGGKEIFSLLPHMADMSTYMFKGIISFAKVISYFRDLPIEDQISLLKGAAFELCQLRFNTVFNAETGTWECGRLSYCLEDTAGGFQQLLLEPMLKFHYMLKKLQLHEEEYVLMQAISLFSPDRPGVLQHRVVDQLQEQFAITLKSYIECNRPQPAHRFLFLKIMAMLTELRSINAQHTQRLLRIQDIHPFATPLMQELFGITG

NC(=O)c1cc(Cn2cc(-c3c(-c4ccc(Cl)cc4)nc4cc(F)ccn34)nn2)ccc1Cl [MI-883, 2-chloro-5-((4-(2-(4-chlorophenyl)-7-fluoroimidazo[1,2-a]pyridin-3-yl)-1H-1,2,3-triazol-1-yl)methyl)benzamide]
free cholesterol in the liver (per liver protein or LW) [1]: significantly decreased
liver C4 and C4/total cholesterol [1]: did not increase
liver lathosterol, total cholesterol, cholesteryl esters (CE) [1]: did not show significant changes
liver C4, individual animals [1, 7]: 742.5 and 1060.6 and 588.1 and 517.8 and 1677.1 and 810.7 and 1283.7 and 1057.8 and 1099.9
liver cholesteryl esters (CE), individual animals [1, 7]: 23 and 16.4 and 24.1 and 22.4 and 62.3 and 32.9 and 18.7 and 38.2 and 47.6
liver free cholesterol (Free CH), individual animals [1, 7]: 40.3 and 36.2 and 35.7 and 37.4 and 37.7 and 32.3 and 38.3 and 39.6 and 40.5
liver lathosterol, individual animals [1, 7]: 1.57 and 2.018 and 2.101 and 1.895 and 2.439
liver total cholesterol (TotCh), individual animals [1, 7]: 63.3 and 52.6 and 59.8 and 100 and 65.2 and 57 and 77.8 and 88.1
TR-FRET CAR Coactivator assay, mean signal (Fig. 1b) ([2]; 100pM): 1
TR-FRET CAR Coactivator assay, mean signal (Fig. 1b) ([2]; 1nM): 1.012
TR-FRET CAR Coactivator assay, mean signal (Fig. 1b) ([2]; 10nM): 1.235
TR-FRET CAR Coactivator assay, mean signal (Fig. 1b) ([2]; 100nM): 1.572
TR-FRET CAR Coactivator assay, mean signal (Fig. 1b) ([2]; 0.5μM): 1.870
TR-FRET CAR Coactivator assay, mean signal (Fig. 1b) ([2]; 1 μM): 2.020
TR-FRET CAR Coactivator assay, mean signal (Fig. 1b) ([2]; 10 μM): 2.020
TR-FRET CAR Coactivator assay, mean signal (Fig. 1b) ([2]; 30 μM): 2.046
EC50 ([2]; recombinant CAR LBD): 73 ± 20 nM
IC50 [3]: 100 ± 20 nM
genotoxicity / mutagenicity [4]: not genotoxic; also recorded: nonmutagenic
RT-qPCR in LS174T (Fig 1 l, CYP3A4 mRNA), replicates ([5]; Rif 1μM + MI-883 1μM): 2.91 and 2.35 and 2.61
RT-qPCR in LS174T (Fig 1 l, CYP3A4 mRNA), replicates ([5]; Rif 1μM + test compound 10μM): 0.86 and 1.1 and 0.8
RT-qPCR in LS174T (Fig 1 l, CYP3A4 mRNA), replicates ([5]; Rif 10μM + MI-883 1μM): 10.4 and 6.9 and 8.3
RT-qPCR in LS174T (Fig 1 l, CYP3A4 mRNA), replicates ([5]; Rif 10μM + MI-883 10μM): 3.35 and 2.8 and 2.2
RT-qPCR in LS174T (Fig 1 l, CYP3A4 mRNA), replicates ([5]; SR12813 1μM + MI-883 1μM): 0.55 and 0.68 and 0.64
RT-qPCR in LS174T (Fig 1 l, CYP3A4 mRNA), replicates ([5]; SR12813 1μM + test compound 10μM): 0.77 and 0.59 and 0.57
RT-qPCR in LS174T (Fig 1 l, CYP3A4 mRNA), replicates ([5]; single agent 1μM, ctrl = 1): 0.45 and 0.96 and 0.51
RT-qPCR in LS174T (Fig 1 l, CYP3A4 mRNA), replicates ([5]; single agent 10μM): 0.59 and 0.57 and 0.55
fraction unbound [6]: 0.01

— PMC11802874, “The hypolipidemic effect of MI-883, the combined CAR agonist/ PXR antagonist, in diet-induced hypercholesterolemia model” (Nature Communications, 2025)
